Results on 10 compounds are retold here after ChEMBL document CHEMBL1201862, “PubChem BioAssay data set” (2004).

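48-hour exposure; five concentrations; linearly interpolated endpoints. GI50: concentration for 50% inhibition of growth.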 Activity calls are given as the source filed them. Rule as the data show it: active = GI50 up to about 1.1 µM and inactive = higher.

Test systems include MDA-N; 786-0; HCC 2998; UACC-62; A498; MOLT-4; PC-3; HCT-15; Malme-3M; SF-268; COLO 205; NCI-H23; NCI/ADR-RES; HOP-62; M14; UACC-257; TK-10; SK-MEL-2; BT-549; SF-539.
What all share (test): NCI anticancer screen, dose series, 48 h

For the compound `C/C=C1/CC(C(=O)OC)N(C(=O)OCc2ccccc2)C1=S` (stereo not given), the GI50 with MDA-N was > 100 µM (inactive); in the assay with 786-0 it was > 100 µM (inactive); with HCC 2998, 7.73 µM (inactive); in the assay on UACC-62, > 100 µM (inactive); in the assay on A498 it was > 100 µM (inactive); in the assay on MOLT-4, > 100 µM (inactive). Moreover, the GI50 was > 100 µM (inactive) with PC-3; more than 100 µM with HCT-15; > 100 µM (inactive) with Malme-3M; > 100 µM (inactive) in the assay on SF-268; > 100 µM (inactive) in the assay with COLO 205; > 100 µM (inactive) with NCI-H23. The GI50 in the assay with NCI/ADR-RES, in the assay on HOP-62, in the assay with M14, in the assay with UACC-257, with TK-10 and in the assay on SK-MEL-2 was > 100 µM (inactive) throughout. Further, the GI50 with BT-549 is > 100 µM (inactive).

On to `C[Si](C)(C)c1ccc(-c2c3ccc(-c4cc(Br)cc(Br)c4)nc3nc3nc(-c4cc(Br)cc(Br)c4)ccc23)cc1`, for which the GI50 in the assay with MDA-N, in the assay on 786-0, in the assay with HCC 2998, in the assay with UACC-62, in the assay on A498 and with PC-3 was > 100 µM (inactive) throughout. Further, the GI50 was more than 100 µM with HCT-15; > 100 µM (inactive) in the assay on Malme-3M; > 100 µM (inactive) in the assay with SF-268; > 100 µM (inactive) with COLO 205; > 100 µM (inactive) in the assay with NCI-H23; > 100 µM (inactive) in the assay with NCI/ADR-RES. In addition, the GI50 in the assay on HOP-62, in the assay with M14, in the assay with UACC-257, with TK-10, in the assay with SK-MEL-2 and in the assay on BT-549 was > 100 µM (inactive) throughout.

As for `Cn1c(=O)c2c(nc3n2CCC(=O)N3CCCCl)n(C)c1=O`, the GI50 in the assay with MDA-N, in the assay on 786-0, in the assay with HCC 2998, in the assay with UACC-62, in the assay on A498 and with MOLT-4 was > 100 µM (inactive) in each case. Moreover, the GI50 is > 100 µM (inactive) with PC-3; more than 100 µM in the assay with HCT-15; > 100 µM (inactive) in the assay with SF-268; > 100 µM (inactive) in the assay on COLO 205; > 100 µM (inactive) in the assay on NCI-H23; > 100 µM (inactive) with NCI/ADR-RES. For the same compound, the GI50 in the assay on HOP-62, with M14, in the assay with UACC-257, in the assay on TK-10, in the assay on SK-MEL-2 and in the assay with BT-549 was > 100 µM (inactive) in each case.

For `CCOC(=O)CCC(C(=O)OCC)n1nnc2cc(Nc3c(C)[n+]([O-])c4cc(Cl)ccc4[n+]3[O-])ccc21` (stereo not given), the GI50 in the assay on SF-539 was 95.5 µM (inactive); in the assay on MDA-N, > 100 µM (inactive); with 786-0 it was 59.2 µM (inactive); with UACC-62, 55.7 µM (inactive); in the assay on A498, > 100 µM (inactive); in the assay with MOLT-4, 49.1 µM (inactive). The GI50 with PC-3 is > 100 µM (inactive); in the assay with HCT-15, 43.9 µM; in the assay on Malme-3M, > 100 µM (inactive); in the assay on SF-268, 38.4 µM (inactive); in the assay on COLO 205, 41.7 µM (inactive); in the assay with NCI-H23, 60.5 µM (inactive). For the same compound, the GI50 is 35.1 µM (inactive) in the assay with NCI/ADR-RES; 46.8 µM (inactive) with HOP-62; 44.6 µM (inactive) in the assay on M14; 40.1 µM (inactive) with UACC-257; > 100 µM (inactive) in the assay with TK-10; 77.8 µM (inactive) with SK-MEL-2. Besides, in the assay with BT-549, the GI50 is > 100 µM (inactive).

As to `CC(=O)OCC(OC(C)=O)C1C[C@H]2O[C@@H]3[C@H](C[C@H]2O1)O[C@@]1(C[C@@H]3C)C[C@H](C)[C@@H]2O[C@]3(C[C@@H]2O1)C[C@H]1O[C@H]2[C@H](C)[C@H]4OC(=O)C[C@H]5CC[C@@H]6OC7[C@H]8O[C@]9(CC[C@H]%10CC(=O)[C@H](CC[C@H]%11C[C@@H](C)C(=O)C(C[C@@H]4O[C@H]2C[C@H]1O3)O%11)O%10)CC8O[C@@H]7[C@@H](O9)[C@H]6O5` (stereo not given in full), the GI50 with MDA-N is 0.000321 µM (active); in the assay with 786-0 it was 0.00308 µM (active); in the assay with HCC 2998, 0.003 µM (active); in the assay on UACC-62, 0.00248 µM (active); in the assay with A498, > 0.434 µM (active); in the assay with MOLT-4, 0.0184 µM (active). Besides, the GI50 was 0.00337 µM (active) in the assay with PC-3; 0.00635 µM in the assay with HCT-15; 0.00509 µM (active) in the assay with SF-268; 0.00281 µM (active) with COLO 205; 0.00267 µM (active) in the assay on NCI-H23; 0.102 µM (active) in the assay on NCI/ADR-RES. For the same compound, the GI50 was 0.00505 µM (active) with HOP-62, 0.00619 µM (active) in the assay with M14, 0.0481 µM (active) in the assay with SK-MEL-2 and 0.000553 µM (active) with BT-549.

Take `CCOC(=O)c1nc2ccc(C(F)(F)F)cc2nc1NCc1ccc(OC)cc1`: the GI50 is > 100 µM (inactive) with SF-539; > 100 µM (inactive) with MDA-N; > 100 µM (inactive) in the assay with 786-0; > 100 µM (inactive) with UACC-62; 58.6 µM (inactive) with A498; 31.3 µM (inactive) with MOLT-4. Also, the GI50 in the assay on PC-3 is 56.6 µM (inactive); with HCT-15, 82.8 µM; in the assay with Malme-3M, 34.4 µM (inactive); with SF-268, > 100 µM (inactive); with COLO 205, 93.8 µM (inactive); in the assay on NCI-H23, 84.1 µM (inactive). Also, the GI50 is 68.4 µM (inactive) with NCI/ADR-RES; 98.9 µM (inactive) in the assay with HOP-62; > 100 µM (inactive) in the assay with M14; 74 µM (inactive) with UACC-257; 71.6 µM (inactive) with TK-10; 97.9 µM (inactive) in the assay on SK-MEL-2. Besides, the GI50 with BT-549 was 60.4 µM (inactive).

Turning to `C=C[C@@]1(C)CC[C@@H]2[C@@]3(C1)O[C@H]3CC1[C@](C)(C(=O)OC)CCC[C@@]12C` (stereo not given in full), the GI50 with MDA-N was 22.1 µM (inactive); in the assay on 786-0, 20.3 µM (inactive); with HCC 2998, 17.3 µM (inactive); in the assay on UACC-62 it was 27 µM (inactive); with A498, 32.5 µM (inactive); in the assay with MOLT-4 it was 20 µM (inactive). Further, the GI50 with PC-3 was 30.4 µM (inactive); in the assay on HCT-15, 19.5 µM; in the assay with Malme-3M it was 17.7 µM (inactive); in the assay with SF-268 it was 20.2 µM (inactive); in the assay on COLO 205, 16.6 µM (inactive); with NCI-H23, 24.4 µM (inactive). Further, the GI50 was 20 µM (inactive) in the assay with NCI/ADR-RES; 20 µM (inactive) in the assay with HOP-62; 19.6 µM (inactive) in the assay on M14; 19.3 µM (inactive) in the assay with UACC-257; 19.1 µM (inactive) with TK-10; 18.9 µM (inactive) with SK-MEL-2. In addition, in the assay on BT-549, the GI50 was 25.5 µM (inactive).

Consider `CCc1ccc2c(c1)/C(=C1/Nc3ccccc3C1=O)C(=O)N2`, for which the GI50 in the assay on MDA-N is 34.5 µM (inactive); in the assay on 786-0 it was 5.78 µM (inactive); in the assay with HCC 2998, 15.7 µM (inactive); in the assay with UACC-62 it was 15.4 µM (inactive); with A498 it was 4.13 µM (inactive); in the assay with MOLT-4 it was 19.2 µM (inactive). Further, the GI50 in the assay with PC-3 was 14.5 µM (inactive); with HCT-15, 31.7 µM; in the assay on Malme-3M, 35.4 µM (inactive); in the assay with SF-268, 19.6 µM (inactive); in the assay with COLO 205, 14.5 µM (inactive); in the assay with NCI-H23 it was 29.6 µM (inactive). Moreover, the GI50 was 28.7 µM (inactive) with NCI/ADR-RES; 14.2 µM (inactive) with HOP-62; 26.7 µM (inactive) with M14; 30.5 µM (inactive) in the assay on UACC-257; 17 µM (inactive) in the assay with TK-10; 17.1 µM (inactive) in the assay on SK-MEL-2. Also, the GI50 in the assay on BT-549 was 25.1 µM (inactive).

Turning to `CNc1c2cccc(C)c2nc2c(C(=O)NCCN(C)C)cccc12`, the GI50 is 0.0841 µM (active) in the assay with MDA-N; 0.104 µM (active) in the assay with 786-0; 0.0322 µM (active) in the assay with HCC 2998; 0.167 µM (active) with UACC-62; 0.213 µM (active) with A498; < 0.0208 µM (active) in the assay with MOLT-4. Also, the GI50 in the assay on PC-3 was 0.158 µM (active); with HCT-15, 0.115 µM; in the assay with Malme-3M, 0.169 µM (active); in the assay on SF-268, 0.0445 µM (active); in the assay with COLO 205, 0.0423 µM (active); in the assay on NCI-H23, 0.107 µM (active). Moreover, the GI50 with NCI/ADR-RES is 0.265 µM (active); in the assay on HOP-62 it was 0.164 µM (active); with M14 it was 0.207 µM (active); in the assay on UACC-257, 0.211 µM (active); with TK-10, 0.128 µM (active); with SK-MEL-2, 0.309 µM (active). In addition, the GI50 in the assay on BT-549 was 1.04 µM (active).

Take `O=C1c2cccc([N+](=O)[O-])c2C(=O)N1c1ncn[nH]1`: the GI50 was 0.822 µM (active) in the assay with SF-539; > 100 µM (inactive) in the assay with MDA-N; 58.1 µM (inactive) with 786-0; > 100 µM (inactive) with UACC-62; 53 µM (inactive) with A498; > 100 µM (inactive) in the assay with MOLT-4. Besides, the GI50 with PC-3 is > 100 µM (inactive); in the assay with HCT-15, more than 100 µM; with Malme-3M, > 100 µM (inactive); in the assay on SF-268, 37 µM (inactive); in the assay on COLO 205, > 100 µM (inactive); in the assay on NCI-H23, > 100 µM (inactive). Moreover, the GI50 was > 100 µM (inactive) in the assay with NCI/ADR-RES; 38.9 µM (inactive) in the assay with HOP-62; > 100 µM (inactive) with M14; > 100 µM (inactive) in the assay on UACC-257; 27.2 µM (inactive) in the assay with TK-10; 41.2 µM (inactive) with SK-MEL-2. Moreover, the GI50 in the assay on BT-549 is 28.2 µM (inactive).
